Reference: patent US20100055198A1, “HARD SURFACE CLEANING AND DISINFECTING COMPOSITION” (Arkema Inc., priority 2007, published 2010)

Legend:
S. choleraesuis = assay: AOAC Use-Dilution disinfection test, S. choleraesuis; type: cell-based, Salmonella choleraesuis
Procedure: (§1) The testing was performed in accordance with the protocols outlined in “Use-dilution Method”, Protocols 955.14, 955.15 and 964.02 described in Chapter 6 of “Official Methods of Analysis”, 16th Edition, of the Association of Official Analytical Chemists; “Germicidal and Detergent Sanitizing Action of Disinfectants”, 960.09 described in Chapter 6 of “Official Methods of Analysis”, 15th Edition, of the Association of Official Analytical Chemists; or American Society for Testing and Materials (ASTM) E 1054-91 the contents of which are herein incorporated by reference. This test is also commonly referred to as the “AOAC Use-Dilution Test Method”. Testing was conducted starting with 10^5 to 10^6 CFU/ml bacteria concentration, 10 ml of the cleaning composition described in each example and test protocol outlined in the “AOAC Use-dilution Method”.

P. aeruginosa = assay: AOAC Use-Dilution disinfection test, P. aeruginosa; type: cell-based, Pseudomonas aeruginosa
Procedure: as §1

S. aureus = assay: AOAC Use-Dilution disinfection test, S. aureus; type: cell-based, Staphylococcus aureus
Procedure: as §1

[1] = system: gram-positive and gram-negative bacteria; assay: Disinfection properties overall (AOAC Use-Dilution); type: cell-based; conditions: low concentration (e.g. 3%), pH 7
Procedure: as §1

[2] = pH 4.4, time 0 min (starting count)
[3] = pH 7.7, time 0 min (starting count)

hydrogen peroxide [3% H2O2]
S. choleraesuis (CFU/ml) (S. choleraesuis; [2]): 2.9 × 10^5 CFU/ml
S. choleraesuis (CFU/ml) (S. choleraesuis; [3]): 2.4 × 10^5 CFU/ml
P. aeruginosa (CFU/ml) (P. aeruginosa; [2]): 1.7 × 10^5 CFU/ml
P. aeruginosa (CFU/ml) (P. aeruginosa; [3]): 1.5 × 10^5 CFU/ml
killing gram positive bacteria (Staphylococus aureus), in words (S. aureus; acidic pH): not effective
killing gram positive bacteria (Staphylococus aureus), in words (S. aureus; neutral pH): not effective
S. aureus (CFU/ml) (S. aureus; [2]): 1.6 × 10^5 CFU/ml
S. aureus (CFU/ml) (S. aureus; pH 4.4, time 5 min, average from two replicates): 4.3 × 10^3 *^1 CFU/ml
S. aureus (CFU/ml) (S. aureus; [3]): 1.3 × 10^5 CFU/ml
S. aureus (CFU/ml) (S. aureus; pH 7.7, time 5 min): 6.0 × 10^2 CFU/ml

CC(C)O [isopropanol, Isopropanol]
disinfectant property, in words [1]: slight disinfectant property
